Laboratory results reported in patent publication US8822517B2, “Arylosulfonamides for the treatment of CNS diseases” (Adamed SP. Z O.O., priority 2010, dated 2014).

What was measured:
[1] = molecular target: T1, serotoninergic 5-HT1A receptor (Homo sapiens, UniProt P08908); test: Binding assay 5-HT1A (h), [3H]8-OH-DPAT, HEK-293 cells; design: expressed in transfected cells; host or cells: HEK-293 cells; details: read-out: 5-HT1A
T1 sequence (P08908 1-422): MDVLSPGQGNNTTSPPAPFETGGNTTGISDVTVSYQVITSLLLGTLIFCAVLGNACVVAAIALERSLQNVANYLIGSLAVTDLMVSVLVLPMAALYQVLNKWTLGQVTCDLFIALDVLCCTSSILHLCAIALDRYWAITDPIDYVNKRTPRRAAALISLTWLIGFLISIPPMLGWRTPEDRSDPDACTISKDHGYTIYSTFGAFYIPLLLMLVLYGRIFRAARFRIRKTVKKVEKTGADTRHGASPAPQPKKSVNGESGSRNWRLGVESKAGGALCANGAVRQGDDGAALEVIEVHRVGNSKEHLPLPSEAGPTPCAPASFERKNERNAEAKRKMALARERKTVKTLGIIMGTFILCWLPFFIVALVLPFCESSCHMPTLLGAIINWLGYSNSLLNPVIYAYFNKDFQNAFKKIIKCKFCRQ
Outline: (§1)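 Total binding and binding under an excess of unlabelled competitor were both measured, the difference giving specific binding. Counts came from scintillation detection, and compound concentration was 1×10^−6 M.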

[2] = system: sigma σ receptor; test: Binding assay σ (non-selective), [3H]DTG, rat cerebral cortex; details: percent inhibition of control specific binding; compounds tested at 1×10^−6 M
Description: (§2) The specific ligand binding to the receptors is defined as the difference between the total binding and the nonspecific binding determined in the presence of an excess of so unlabelled ligand.
(§3) The specific Ligand binding to the receptor is defined as the difference between total and non-specific binding determined in the presence of an excess of unlabelled ligand. The compounds were tested at a concentration of 1×10^−6 M, and scintillation counting was the method of detection of ligand binding.

[3] = system: adrenergic α1 receptor; test: Binding assay α1 (non-selective), [3H]prazosin, rat cerebral cortex; details: percent inhibition of control specific binding; compounds tested at 1×10^−6 M
Outline: as §1

[4] = molecular target: histaminergic H1 receptor (Homo sapiens, UniProt P35367); test: Binding assay H1 (h), [3H]pyrilamine, HEK-293 cells; design: expressed in transfected cells; host or cells: HEK-293 cells; details: read-out: H1 [%]
Description: as §2, §3

[5] = molecular target: dopaminergic D2 receptor (Homo sapiens, UniProt P14416); test: Binding assay D2S (h), [3H]methyl-spiperone, HEK-293 cells; design: expressed in transfected cells; host or cells: HEK-293 cells; details: read-out: D2 [%]
Outline: as §1

[6] = molecular target: T2, serotoninergic receptor 5-HT2C (Homo sapiens, UniProt P28335); test: Binding assay 5-HT2C (h), [3H]mesulergine, HEK-293 cells; details: read-out: 5-HT2C [%]
T2 construct: expressed in transfected cells; host or cells: HEK-293 cells
T2 sequence (P28335 33-458): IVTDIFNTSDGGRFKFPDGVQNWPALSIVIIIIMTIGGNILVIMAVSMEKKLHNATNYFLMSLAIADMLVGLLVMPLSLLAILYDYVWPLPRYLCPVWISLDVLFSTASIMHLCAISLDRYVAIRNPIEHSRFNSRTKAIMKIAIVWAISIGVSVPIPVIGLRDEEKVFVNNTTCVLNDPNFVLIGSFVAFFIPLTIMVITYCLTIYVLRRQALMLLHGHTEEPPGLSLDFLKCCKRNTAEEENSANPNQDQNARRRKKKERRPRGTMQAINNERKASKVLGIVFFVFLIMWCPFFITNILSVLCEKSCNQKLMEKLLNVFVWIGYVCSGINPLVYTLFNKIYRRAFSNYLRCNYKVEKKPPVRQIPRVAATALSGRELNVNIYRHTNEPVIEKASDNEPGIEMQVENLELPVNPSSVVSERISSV
Description: as §2, §3

[7] = molecular target: serotoninergic 5-HT2A receptor (Homo sapiens, UniProt P28223); test: Binding assay 5-HT2A (h), [3H]ketanserin, HEK-293 cells; design: expressed in transfected cells; host or cells: HEK-293 cells; details: read-out: 5-HT2A
Outline: as §1

[8] = molecular target: serotoninergic 5-HT6 receptor (Homo sapiens, UniProt P50406); test: Binding assay 5-HT6 (h), [3H]LSD, CHO cells; design: expressed in transfected cells; host or cells: CHO cells; details: read-out: 5-HT6
Outline: as §1

[9] = molecular target: serotoninergic 5-HT7 receptor (Homo sapiens, UniProt P34969); test: Binding assay 5-HT7 (h), [3H]LSD, CHO cells; design: expressed in transfected cells; host or cells: CHO cells; details: read-out: 5-HT7
Outline: as §1

[10] = molecular target: T3, serotonine transporter (SERT) receptor (Homo sapiens, UniProt P31645); test: Binding assay SERT (h), [3H]imipramine, CHO cells; details: read-out: SERT [%]
T3 construct: expressed in transfected cells; host or cells: CHO cells
Outline: as §1

[11] = molecular target: T4, muscarinic M3 receptor (Homo sapiens, UniProt P20309); test: Binding assay M3 (h), [3H]4-DAMP, CHO cells; details: read-out: M3 [%]
T4 construct: expressed in transfected cells; host or cells: CHO cells
Description: as §2, §3

[12] = molecular target: dopaminergic D3 receptor (Homo sapiens, UniProt P35462); test: Binding assay D3 (h), [3H]methyl-spiperone, CHO cells; design: expressed in transfected cells; host or cells: CHO cells; details: read-out: D3 [%]
Outline: as §1

[13] = molecular target: T5, adrenergic α2C receptor (Homo sapiens, UniProt P18825); test: Binding assay α2C (h), [3H]RX 821002, CHO cells; design: expressed in transfected cells; host or cells: CHO cells; details: read-out: α2C [%]
T5 sequence (P18825 1-462): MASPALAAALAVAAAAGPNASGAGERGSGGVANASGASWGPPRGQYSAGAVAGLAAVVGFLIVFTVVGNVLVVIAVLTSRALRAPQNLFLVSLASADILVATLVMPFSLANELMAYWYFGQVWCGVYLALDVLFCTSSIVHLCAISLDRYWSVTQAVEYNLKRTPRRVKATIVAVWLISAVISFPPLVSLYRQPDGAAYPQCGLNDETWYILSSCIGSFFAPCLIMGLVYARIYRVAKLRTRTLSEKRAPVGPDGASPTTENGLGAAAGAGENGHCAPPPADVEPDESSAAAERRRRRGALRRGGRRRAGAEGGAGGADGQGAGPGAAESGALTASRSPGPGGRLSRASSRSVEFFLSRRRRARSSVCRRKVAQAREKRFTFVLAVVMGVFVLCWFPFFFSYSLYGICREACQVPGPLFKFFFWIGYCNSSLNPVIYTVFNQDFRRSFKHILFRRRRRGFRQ
Description: as §2, §3

T4 sequence (P20309 whole entry): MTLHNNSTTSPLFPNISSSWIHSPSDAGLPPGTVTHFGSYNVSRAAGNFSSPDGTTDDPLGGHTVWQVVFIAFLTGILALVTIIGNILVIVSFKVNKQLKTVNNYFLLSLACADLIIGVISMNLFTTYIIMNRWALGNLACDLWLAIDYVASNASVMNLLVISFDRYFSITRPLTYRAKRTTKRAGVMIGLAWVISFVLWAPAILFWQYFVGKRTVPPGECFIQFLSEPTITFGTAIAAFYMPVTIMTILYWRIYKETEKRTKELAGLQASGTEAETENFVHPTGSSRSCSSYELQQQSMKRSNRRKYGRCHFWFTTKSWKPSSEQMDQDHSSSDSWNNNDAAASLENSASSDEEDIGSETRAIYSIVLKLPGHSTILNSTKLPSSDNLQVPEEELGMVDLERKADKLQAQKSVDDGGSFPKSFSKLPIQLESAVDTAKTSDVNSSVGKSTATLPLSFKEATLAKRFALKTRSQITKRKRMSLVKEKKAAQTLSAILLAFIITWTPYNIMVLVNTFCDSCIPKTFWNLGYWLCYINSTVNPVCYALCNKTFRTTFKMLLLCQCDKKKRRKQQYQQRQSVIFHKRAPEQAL
dopaminergic D3 receptor, sequence (P35462 whole entry): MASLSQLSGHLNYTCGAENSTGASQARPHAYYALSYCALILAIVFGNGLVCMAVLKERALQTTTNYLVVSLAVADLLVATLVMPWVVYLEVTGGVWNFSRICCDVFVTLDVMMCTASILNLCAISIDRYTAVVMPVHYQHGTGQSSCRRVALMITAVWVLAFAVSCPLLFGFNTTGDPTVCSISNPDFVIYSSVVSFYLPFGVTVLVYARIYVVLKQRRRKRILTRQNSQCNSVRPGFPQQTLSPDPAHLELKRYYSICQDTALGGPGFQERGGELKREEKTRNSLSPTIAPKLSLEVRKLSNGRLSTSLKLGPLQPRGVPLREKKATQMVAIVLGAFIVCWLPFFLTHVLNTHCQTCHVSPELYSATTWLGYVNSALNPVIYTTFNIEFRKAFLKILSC
serotoninergic 5-HT7 receptor, sequence (P34969 whole entry): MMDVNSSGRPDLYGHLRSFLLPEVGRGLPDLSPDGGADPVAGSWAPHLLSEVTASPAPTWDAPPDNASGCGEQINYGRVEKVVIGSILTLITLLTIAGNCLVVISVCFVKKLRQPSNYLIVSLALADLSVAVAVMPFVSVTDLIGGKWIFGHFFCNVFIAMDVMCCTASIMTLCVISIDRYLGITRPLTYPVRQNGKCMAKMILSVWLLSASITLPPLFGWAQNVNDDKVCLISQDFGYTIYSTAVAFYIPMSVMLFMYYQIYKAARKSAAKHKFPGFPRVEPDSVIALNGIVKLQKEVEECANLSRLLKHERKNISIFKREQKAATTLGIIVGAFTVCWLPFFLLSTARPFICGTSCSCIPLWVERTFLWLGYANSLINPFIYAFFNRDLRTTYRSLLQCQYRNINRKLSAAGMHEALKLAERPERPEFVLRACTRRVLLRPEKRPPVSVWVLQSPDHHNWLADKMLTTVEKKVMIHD
dopaminergic D2 receptor, sequence (P14416 1-414 isoform P14416-2): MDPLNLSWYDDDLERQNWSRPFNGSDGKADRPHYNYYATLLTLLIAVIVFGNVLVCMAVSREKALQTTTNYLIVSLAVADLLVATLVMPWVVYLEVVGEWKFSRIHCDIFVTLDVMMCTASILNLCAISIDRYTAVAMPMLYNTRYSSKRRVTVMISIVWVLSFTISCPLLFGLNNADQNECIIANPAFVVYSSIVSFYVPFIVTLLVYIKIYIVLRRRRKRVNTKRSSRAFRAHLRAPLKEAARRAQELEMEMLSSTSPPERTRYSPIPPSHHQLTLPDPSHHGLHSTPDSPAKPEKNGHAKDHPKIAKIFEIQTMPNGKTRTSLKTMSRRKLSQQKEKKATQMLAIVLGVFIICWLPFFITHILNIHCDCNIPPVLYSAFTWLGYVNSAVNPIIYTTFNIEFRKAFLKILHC
serotoninergic 5-HT2A receptor, sequence (P28223 whole entry): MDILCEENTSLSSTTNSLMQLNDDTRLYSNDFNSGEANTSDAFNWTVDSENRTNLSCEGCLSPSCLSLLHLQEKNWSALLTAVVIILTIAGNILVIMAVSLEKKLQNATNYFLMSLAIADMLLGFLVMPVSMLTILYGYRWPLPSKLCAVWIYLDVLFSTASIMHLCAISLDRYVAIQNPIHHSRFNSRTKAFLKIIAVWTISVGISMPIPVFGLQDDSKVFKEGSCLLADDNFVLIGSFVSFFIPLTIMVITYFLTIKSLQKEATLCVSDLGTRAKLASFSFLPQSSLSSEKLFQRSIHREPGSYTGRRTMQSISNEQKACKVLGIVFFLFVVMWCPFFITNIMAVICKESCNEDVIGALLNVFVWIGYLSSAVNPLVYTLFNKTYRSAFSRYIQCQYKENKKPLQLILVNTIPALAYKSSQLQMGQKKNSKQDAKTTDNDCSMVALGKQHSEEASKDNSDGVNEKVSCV
T3 sequence (P31645 whole entry): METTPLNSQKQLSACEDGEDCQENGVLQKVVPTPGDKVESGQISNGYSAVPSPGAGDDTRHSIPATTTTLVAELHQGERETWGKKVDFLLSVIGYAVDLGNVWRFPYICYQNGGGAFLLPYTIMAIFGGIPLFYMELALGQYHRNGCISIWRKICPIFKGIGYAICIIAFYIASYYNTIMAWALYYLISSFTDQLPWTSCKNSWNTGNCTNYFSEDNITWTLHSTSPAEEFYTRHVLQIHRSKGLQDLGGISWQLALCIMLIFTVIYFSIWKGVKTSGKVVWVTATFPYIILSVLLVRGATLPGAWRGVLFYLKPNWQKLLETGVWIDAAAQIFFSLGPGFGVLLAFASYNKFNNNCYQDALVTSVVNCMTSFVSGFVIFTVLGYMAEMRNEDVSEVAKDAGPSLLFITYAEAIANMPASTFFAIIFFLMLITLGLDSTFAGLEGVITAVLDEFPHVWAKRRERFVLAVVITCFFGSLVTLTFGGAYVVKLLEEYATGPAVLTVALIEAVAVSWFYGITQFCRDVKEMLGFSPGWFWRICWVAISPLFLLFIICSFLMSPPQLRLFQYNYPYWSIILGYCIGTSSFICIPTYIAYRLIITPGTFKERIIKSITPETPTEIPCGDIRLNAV
histaminergic H1 receptor, sequence (P35367 whole entry): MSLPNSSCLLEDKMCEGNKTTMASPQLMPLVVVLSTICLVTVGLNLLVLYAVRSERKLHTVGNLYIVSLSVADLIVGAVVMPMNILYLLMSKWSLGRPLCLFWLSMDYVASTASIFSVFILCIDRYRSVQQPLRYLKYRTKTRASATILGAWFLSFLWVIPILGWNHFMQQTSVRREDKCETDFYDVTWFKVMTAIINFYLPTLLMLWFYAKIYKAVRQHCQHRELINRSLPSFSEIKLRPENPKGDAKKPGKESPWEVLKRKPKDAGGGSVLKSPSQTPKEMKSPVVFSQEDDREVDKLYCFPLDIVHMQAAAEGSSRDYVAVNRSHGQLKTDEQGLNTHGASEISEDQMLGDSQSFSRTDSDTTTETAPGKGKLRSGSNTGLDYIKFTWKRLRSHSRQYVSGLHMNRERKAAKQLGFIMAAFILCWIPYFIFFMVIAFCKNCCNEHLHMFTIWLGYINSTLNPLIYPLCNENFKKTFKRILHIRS
serotoninergic 5-HT6 receptor, sequence (P50406 whole entry): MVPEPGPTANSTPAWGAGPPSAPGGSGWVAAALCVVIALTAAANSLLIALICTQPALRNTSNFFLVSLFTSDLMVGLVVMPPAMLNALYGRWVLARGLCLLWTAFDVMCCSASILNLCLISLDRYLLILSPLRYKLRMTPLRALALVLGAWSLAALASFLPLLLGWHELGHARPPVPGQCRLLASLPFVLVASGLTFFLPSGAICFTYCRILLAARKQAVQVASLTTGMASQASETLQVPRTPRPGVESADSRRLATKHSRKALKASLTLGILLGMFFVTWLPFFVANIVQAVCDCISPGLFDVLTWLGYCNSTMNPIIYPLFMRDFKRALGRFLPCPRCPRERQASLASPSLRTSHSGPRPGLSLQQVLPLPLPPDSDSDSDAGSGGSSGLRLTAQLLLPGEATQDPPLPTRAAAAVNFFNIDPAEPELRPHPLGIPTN

SMILES | inhibition at 1 µM [1] | σ [%] [2] | α1 [%] [3] | inhibition at 1 µM [4] | inhibition at 1 µM [5] | inhibition at 1 µM [6] | inhibition at 1 µM [7] | inhibition at 1 µM [8] | inhibition at 1 µM [9] | inhibition at 1 µM [10] | inhibition at 1 µM [11] | inhibition at 1 µM [12] | inhibition at 1 µM [13]
O=S(=O)(NCCCN1CCN(c2nsc3ccccc23)CC1)c1cccc(Br)c1 [Compound 253, N-[3-[4-(1,2-Benzothiazol-3-yl)piperazin-1-yl]propyl]-3-bromobenzenesulphonamide] | 99% | 64% | 97% | 98% | 99% | 89% | 101% | 101% | 99% | 79% | 24% | 99% | 102%
CC(C)(C)c1ccc(S(=O)(=O)NCCCN2CCN(c3nsc4ccccc34)CC2)cc1 [Compound 256, N-[3-[4-(1,2-Benzothiazol-3-yl)piperazin-1-yl]propyl]-4-tert-butylbenzenesulphonamide] | 96% | 41% | 87% | 94% | 97% | 94% | 102% | 95% | 100% | 93% | 15% | 96% | 92%
O=S(=O)(NCCCN1CCN(c2nsc3ccccc23)CC1)c1ccc(C(F)(F)F)cc1 [Compound 257, N-[3-[4-(1,2-Benzothiazol-3-yl)piperazin-1-yl]propyl]-4-(trifluoromethyl)benzenesulphonamide] | 99% | 57% | 94% | 91% | 99% | 83% | 101% | 94% | 101% | 93% | 12% | 100% | 99%
O=S(=O)(NCCCN1CCN(c2nsc3ccccc23)CC1)c1cccc(C(F)(F)F)c1 [Compound 258, N-[3-[4-(1,2-Benzothiazol-3-yl)piperazin-1-yl]propyl]-3-(trifluoromethyl)benzenesulphonamide] | 100% | 61% | 97% | 97% | 95% | 86% | 101% | 98% | 100% | 80% | 15% | 97% | 98%
O=S(=O)(NCCCN1CCN(c2nsc3ccccc23)CC1)c1ccc(-c2ccccc2)cc1 [Compound 260, N-[3-[4-(1,2-Benzothiazol-3-yl)piperazin-1-yl]propyl]-4-phenylbenzenesulphonamide] | 96% | 41% | 91% | 95% | 99% | 90% | 102% | 92% | 100% | 90% | 11% | 98% | 99%
O=S(=O)(NCCCN1CCN(c2nsc3ccccc23)CC1)c1cccs1 [Compound 261, N-[3-[4-(1,2-Benzothiazol-3-yl)piperazin-1-yl]propyl]thiophene-2-sulphonamide] | 98% | 57% | −90% | 92% | 97% | 87% | 102% | 83% | 100% | 60% | 15% | 98% | 92%
O=S(=O)(NCCCN1CCN(c2nsc3ccccc23)CC1)c1cc2ccccc2s1 [Compound 262, N-[3-[4-(1,2-Benzothiazol-3-yl)piperazin-1-yl]propyl]benzothiophene-2-sulphonamide] | 99% | 51% | 95% | 95% | 98% | 84% | 102% | 93% | 99% | 87% | 19% | 98% | 94%
O=S(=O)(NCCCN1CCN(c2nsc3ccccc23)CC1)c1csc2ccccc12 [Compound 263, N-[3-[4-(1,2-Benzothiazol-3-yl)piperazin-1-yl]propyl]benzothiophene-3-sulphonamide] | 98% | 49% | 90% | 93% | 98% | 87% | 102% | 96% | 98% | 87% | 7% | 98% | 93%
O=S(=O)(NCCCN1CCN(c2nsc3ccccc23)CC1)c1cccc2scnc12 [Compound 267, N-[3-[4-(1,2-Benzothiazol-3-yl)piperazin-1-yl]propyl]-1,3-benzothiazole-4-sulphonamide] | 98% | 50% | 97% | 92% | 100% | 78% | 101% | 95% | 100% | 91% | 13% | 99% | 99%
